How the values were obtained:
[1] = test system: BNL CL.2 (non-transformed murine embryonic liver cell line); experiment: XTT cell viability assay (growth curves / growth inhibition); assay type: cell-based; conditions: BNL CL.2 cells; at the IC95 concentration of EXAMPLE 3 against NMP53-/- cells; 48h
Procedure: (§1) In brief, cells were seeded in 6-well plates on day 1. On day 2, cells were treated with either EXAMPLE 3 (AURKA Ligand) or with DMSO (control). After 5 days, wells were washed and cells were fixed with 4% PFA and then stained with Crystal Violet solution. Plates were scanned and pictures were saved. (B) Crystal violet colony formation assay of NMP19-/- or NMP53 murine hepatocellular carcinoma cells. In brief, cells were seeded in 6-well plates on day 1. On day 2, cells were treated with MLN8237 (AURKA inhibitor) or with DMSO (control). After 5 days, wells were washed and cells were fixed with 4% PFA and then stained with Crystal Violet solution. Plates were scanned and pictures were saved. (C) AURKA kinase assay with the AURKA ligand EXAMPLE 3. The AURKA kinase assay was performed by Reaction Biology Corp. and it is based on radiometric ATP quantification. Compounds were received as 10 mM stock. […] Afterwards, an XTT cell viability assay was performed, based on the quantification of metabolic activity of alive cells. […] Finally, slides were mounted and analyzed in a fluorescent microscope. Bar graphs represent quantification of abnormal/normal spindles levels of (B) NMP53^-/- and (C) NMP19^-/- mitotic cells at time points after treatment with 15 nM of EXAMPLE 3. […] Subsequently, they were analyzed in a Flow Cytometry device for quantification of the amount of PI in each cell. […]

TPX2 = experiment: Cellular Thermal Shift Assay (CETSA) in NMP53-/- cells; assay type: cell-based, murine; conditions: 43.7- 47.9 °C
AURKA = target: T1, AURKA (Mus musculus, UniProt P97477); experiment: as above; assay type: cell-based, murine; conditions: 43.7- 47.9 °C
T1 construct: endogenous in cells; host or cells: NMP53-/- murine hepatocellular carcinoma cells
T1 sequence (P97477 1-395): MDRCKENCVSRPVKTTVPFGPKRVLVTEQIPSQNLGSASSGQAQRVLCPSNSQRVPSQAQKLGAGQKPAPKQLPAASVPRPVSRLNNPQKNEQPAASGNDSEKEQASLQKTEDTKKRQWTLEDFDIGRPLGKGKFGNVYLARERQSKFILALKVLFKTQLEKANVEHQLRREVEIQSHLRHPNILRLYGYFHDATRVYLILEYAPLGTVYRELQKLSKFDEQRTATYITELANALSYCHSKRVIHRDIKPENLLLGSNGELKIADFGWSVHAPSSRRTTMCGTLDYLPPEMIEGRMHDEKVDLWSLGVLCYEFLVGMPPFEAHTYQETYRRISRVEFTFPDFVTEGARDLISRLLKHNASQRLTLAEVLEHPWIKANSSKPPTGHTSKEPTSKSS

NMP19-/- = experiment: XTT cell viability assay (growth curves / growth inhibition); assay type: cell-based, murine; conditions: NMP19-/- cells; at the IC95 concentration of EXAMPLE 3 against NMP53-/- cells; 48h
Procedure: as §1

thermal stabilization of AURKA (SDS-Page of soluble fraction) (AURKA): stabilized
Structure (SMILES): Cn1cc(-c2ccc(CNc3ccnc4[nH]c(CCc5ccco5)nc34)cc2)cn1 [Example 3, 2-(2-(furan-2-yl)ethyl)-N-(4-(1-methyl-1H-pyrazol-4-yl)benzyl)-3H-imidazo[4,5-b]pyridin-7-amine]
growth inhibition in percentage [1]: no significant growth inhibition
thermal stabilization of TPX2 (SDS-Page of soluble fraction) (TPX2): stabilized
growth inhibition in percentage (NMP19-/-): no significant growth inhibition

From patent publication EP4620957A1, “IMIDAZO[4,5-B]PYRIDIN-7-AMINE COMPOUNDS BINDING AURORA KINASE A AND USES THEREOF” (Eberhard Karls Universität Tübingen, priority 2024, dated 2025)
